# Target: human Nav1.7 (Homo sapiens (Human), UniProt Q15858)
# Assay: FLIPR or FLIPR TETRA sodium dye assay with KCl and test article pre-incubation
# Format: cell-based
# Settings: read-out: Nav1.7 Activity (μM) FLIPR assay IC50 (μM) ± SEM
# Sequence of human Nav1.7 (Q15858 with tags, fused parts or gaps limits assumed): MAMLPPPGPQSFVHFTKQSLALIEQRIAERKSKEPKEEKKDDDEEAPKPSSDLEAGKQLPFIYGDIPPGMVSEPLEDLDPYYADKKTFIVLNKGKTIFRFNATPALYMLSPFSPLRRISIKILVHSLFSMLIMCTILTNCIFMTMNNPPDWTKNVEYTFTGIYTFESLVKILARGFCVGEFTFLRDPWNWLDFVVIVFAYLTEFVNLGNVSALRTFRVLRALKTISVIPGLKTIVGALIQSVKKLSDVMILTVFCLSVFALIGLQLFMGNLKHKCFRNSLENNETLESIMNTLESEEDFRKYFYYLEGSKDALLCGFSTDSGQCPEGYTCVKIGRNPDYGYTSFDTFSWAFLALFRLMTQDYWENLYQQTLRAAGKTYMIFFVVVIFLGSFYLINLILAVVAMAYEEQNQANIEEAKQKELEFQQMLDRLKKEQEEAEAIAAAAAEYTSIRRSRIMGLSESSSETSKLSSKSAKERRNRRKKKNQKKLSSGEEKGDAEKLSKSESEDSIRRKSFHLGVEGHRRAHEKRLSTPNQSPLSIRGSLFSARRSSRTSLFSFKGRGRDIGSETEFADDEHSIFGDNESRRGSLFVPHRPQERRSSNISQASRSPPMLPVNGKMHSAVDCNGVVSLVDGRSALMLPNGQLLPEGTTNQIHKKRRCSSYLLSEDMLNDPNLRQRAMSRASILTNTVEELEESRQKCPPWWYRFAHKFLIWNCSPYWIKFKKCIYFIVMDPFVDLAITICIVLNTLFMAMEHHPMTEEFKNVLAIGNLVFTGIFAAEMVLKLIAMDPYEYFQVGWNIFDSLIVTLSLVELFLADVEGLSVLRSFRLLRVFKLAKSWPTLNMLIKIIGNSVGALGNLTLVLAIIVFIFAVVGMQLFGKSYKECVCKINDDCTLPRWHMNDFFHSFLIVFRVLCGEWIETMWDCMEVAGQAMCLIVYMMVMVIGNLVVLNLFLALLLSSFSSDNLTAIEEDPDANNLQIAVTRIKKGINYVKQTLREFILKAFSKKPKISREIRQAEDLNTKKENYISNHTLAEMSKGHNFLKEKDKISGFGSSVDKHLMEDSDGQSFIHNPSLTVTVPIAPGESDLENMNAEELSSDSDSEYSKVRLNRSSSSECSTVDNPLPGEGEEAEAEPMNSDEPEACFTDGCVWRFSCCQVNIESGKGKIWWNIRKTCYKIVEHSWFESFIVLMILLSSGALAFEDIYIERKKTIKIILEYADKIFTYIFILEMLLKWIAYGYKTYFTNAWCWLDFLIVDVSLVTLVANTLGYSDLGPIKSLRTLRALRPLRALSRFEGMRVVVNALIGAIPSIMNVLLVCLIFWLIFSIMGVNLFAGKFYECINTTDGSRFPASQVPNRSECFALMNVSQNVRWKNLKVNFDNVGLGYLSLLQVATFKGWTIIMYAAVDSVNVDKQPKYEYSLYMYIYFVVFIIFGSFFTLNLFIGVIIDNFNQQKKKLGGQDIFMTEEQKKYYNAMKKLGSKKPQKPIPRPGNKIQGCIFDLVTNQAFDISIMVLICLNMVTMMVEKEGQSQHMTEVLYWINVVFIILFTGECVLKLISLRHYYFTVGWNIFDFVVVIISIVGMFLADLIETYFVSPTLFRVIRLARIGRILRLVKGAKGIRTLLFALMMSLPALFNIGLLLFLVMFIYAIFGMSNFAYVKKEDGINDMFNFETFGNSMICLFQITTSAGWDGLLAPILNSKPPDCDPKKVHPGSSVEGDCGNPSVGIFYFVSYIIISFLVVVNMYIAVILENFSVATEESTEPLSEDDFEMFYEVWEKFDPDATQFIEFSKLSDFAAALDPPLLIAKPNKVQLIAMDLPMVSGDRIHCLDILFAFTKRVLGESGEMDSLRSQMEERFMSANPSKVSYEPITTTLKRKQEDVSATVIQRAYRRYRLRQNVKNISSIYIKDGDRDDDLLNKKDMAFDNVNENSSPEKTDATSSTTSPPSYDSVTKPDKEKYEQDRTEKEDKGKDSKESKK
row,Compound,IC50
1,"N#Cc1cc(Oc2ccc(-c3cccc(C(=O)[C@H](O)CO)n3)cc2)ccc1C(F)(F)F [Compound 3, (R)-5-(4-(6-(2,3-dihydroxypropanoyl)pyridin-2-yl)phenoxy)-2-(trifluoromethyl)benzonitrile]",0.402 ± 0.096 µM
2,"N#Cc1ccc(Oc2ccc(-c3cccc(C(=O)[C@H](O)CO)n3)cc2)cc1C(F)(F)F [Compound 2, (R)-4-(4-(6-(2,3-dihydroxypropanoyl)pyridin-2-yl)phenoxy)-2-(trifluoromethyl)benzonitrile]",0.365 ± 0.065 µM
3,"O=C(c1cccc(-c2ccc(Oc3ccc(F)cc3)cc2)n1)[C@H](O)CO [Compound 1, (R)-1-(6-(4-(4-fluorophenoxy)phenyl)pyridin-2-yl)-2,3-dihydroxypropan-1-one]",0.133 ± 0.005 µM
4,"O=C(c1cccc(-c2ccc(Oc3ccc(C(F)(F)F)cc3)cc2)n1)[C@H](O)CO [Compound 4, (R)-2,3-dihydroxy-1-(6-(4-(4-(trifluoromethyl)phenoxy)phenyl)pyridin-2-yl)propan-1-one]",0.136 ± 0.016 µM
5,"N#Cc1cc(Oc2ccc(-c3cccc(C(O)C(N)=O)n3)cc2)ccc1C(F)(F)F (stereo not drawn) [Compound 6, 2-(6-(4-(3-cyano-4-(trifluoromethyl)phenoxy)phenyl)pyridin-2-yl)-2-hydroxyacetamide]",0.722 ± 0.053 µM
6,"N#Cc1ccc(Oc2ccc(-c3cccc(C(=O)[C@H](O)CO)n3)cc2)cc1 [Compound 5, (R)-4-(4-(6-(2,3-dihydroxypropanoyl)pyridin-2-yl)phenoxy)benzonitrile]",0.149 ± 0.023 µM

# Reference: US9718780B2, “Substituted pyridines as sodium channel blockers” (priority 2012, dated 2017)
